Patent US11191820B2, “Method for inducing early T memory response with short peptides anti-tumor vaccine” (OSE IMMUNOTHERAPEUTICS, priority 2015, dated 2021)

Legend:
Type in all cases: in vivo, human
central memory T cells [1] = assay: Cultured IFN-γ ELISPOT after 10-day in vitro stimulation of PBMC, phase 1/2 colon cancer trial of OSE-2101; set-up: key to net SFC of vaccine positive CTL responses: —, indicates SFC response did not meet criteria and vaccine response was negative; settings: for Mean SFC: 10 colon patients
Experimental: (§1) Clinical study design. Both trials were designed as phase 1/2, open label, multi-center, single dose, multiple administration studies to evaluate the safety and immunogenicity of the OSE-2101 immunotherapy. Patients were treated with 1 ml OSE-2101 every 3 weeks for a total of six doses. Each dose was administered subcutaneously in the same vicinity in the deltoid or upper thigh region, or at a contralateral site if local side-effects were observed. The study duration for each completed patient was 18 weeks. Clinical responses or patient survival were not measured in either phase 1/2 studies.
(§2) Clinical sample processing. Blood or leukapheresis product was obtained from patients at the pre-treatment, the Week 9 and Week 18 time points, 3 weeks after the third and sixth dose of OSE-2101 respectively. Peripheral blood mononuclear cells (PBMC) were isolated from samples within 24 hours of collection using a FICOLL-PAQUE density gradient and cryopreserved in containers designed to ensure optimal freezing (Mr. Frosty, Nalgene). For use, cells were rapidly thawed at 37° C. then transferred to human AB serum-containing medium for work-up.
(§3) Measurement of central T memory cells responses and T effector memory cells. The CTL responses in 16 total patients (10 colon and six NSCLC) were monitored for CTL responses against each epitope and against the wild-type epitope of epitopes analogs. For each patient, the pre-treatment, Week 9 and Week 18 time points were batch-tested in the same experiment to allow pre- versus post-treatment response comparison in the same experiment. Central T memory cells responses were measured using an IFN-γ enzyme-linked immunospot (cultured ELISPOT) assay following in vitro stimulation of PBMC for 10 days with each vaccine epitope. Briefly, PBMC from each time point were stimulated on day 0 with 10 μg/ml of each epitope individually in replicate in 48-well culture plates (2×10^6 PBMC/well). All cultures were fed with rIL-2 (Endogen, Woburn, Mass.; 10 U/ml final concentration) on days 1, 4 and 7. Ten days after initiation of culture, cells were harvested and tested for activity against specific vaccine peptides and corresponding wild-type peptides of vaccine analogs in the T memory ELISPOT assay. Cells were tested in Millipore IP 96-well plates pre-coated with mouse anti-human IFN-γ antibody (Mabtech USA, Cincinnati, Ohio). Five×10^4 cells and 1.25×10^4 cells from each culture were plated in triplicate wells together with 10^5 irradiated autologous PBMC and 10 μg/ml peptide. As a control, CTL were also tested against an irrelevant HLA-A2.1-binding HBV peptide. After 20 hours incubation, T memory ELISPOT plates were developed by performing sequential incubations with biotinylated anti-human IFN-γ antibody (Mabtech USA), Avidin-Peroxidase Complex (APC, Vector Laboratories, Burlingame, Calif.), and 3-amino-9-ethyl carbazole (AEC) substrate (Sigma Aldrich, St. Louis, Mo.). Spot-forming cells (SFC) were enumerated using a computer-assisted image analysis system (Zeiss KS ELISPOT Reader, Carl Zeiss MicroImaging, Thornwood, N.J.). Data is reported as the net SFC per 5×10^4 cells after subtracting spots induced with the irrelevant HBV peptide.

central memory T cells [2] = assay: Cultured IFN-γ ELISPOT after 10-day in vitro stimulation of PBMC, phase 1/2 NSCLC trial of OSE-2101; set-up: key to net SFC of vaccine positive CTL responses: —, indicates SFC response did not meet criteria and vaccine response was negative; settings: for Mean SFC / No. Positive Responses: 6 NSCLC patients
Experimental: as §1, §2, §3

central memory T cells [3] = assay: Central memory T cell cultured ELISPOT, phase 2 trial in advanced NSCLC
Experimental: CTL Immune responses measured though cultured Elispot. The immunogenicity was measured in Phase 2 clinical trial on cryopreserved PBMC from each test sample were thawed in 5% human culture medium (RPMI-1640 medium with 25 mM HEPES, supplemented with 5% human AB serum, 4 mM L-glutamine, 0.5 mM sodium pyruvate, 0.1 mM MEM non-essential amino acids, 100 μg/ml streptomycin, and 100 U/ml penicillin) containing 30 μg/ml DNAase. After centrifugation for 5 minutes at 1200 rpm, the cell pellets were resuspended in 5% human culture medium and washed 2 times. For the central Memory T cell cultured ELISPOT assay, 2×10^6/ml PBMC were placed in replicate wells in a 48-well plates and stimulated for 10 days with 10 μg/ml of each peptide. As a positive control, PBMC were also stimulated with a pool of recall viral peptides. Human rIL2 (10 U/ml) was added to the peptide-stimulated cultures at day 1, day 4 and day 7. After 10 days the stimulated cells were harvested and plated at a concentration of 5×10^4/well. Assay wells also received irradiated autologous PBMC (1×10^5/well) and 10 μg/ml peptide, either the vaccine peptide, irrelevant peptide or positive control peptides. Cells stimulated in vitro with each analog epitope were also tested against the corresponding wild-type epitope.
Data analysis and acceptance criteria. Mean and standard deviation (SD) of spots in replicate wells were calculated in all assays by transferring raw ELISPOT data from each experiment to an Excel-based computer program. Positive vaccine-induced T-cell responses were determined according to the criteria described below.
Acceptance Criteria for peptide-Induced specific T-cell response through central memory T cells: The positive criteria for CTL responses used in the phase 2 trial was identical to the criteria in the phase 1/2 trials which was established prospectively after analyzing the variability of pre-treatment responses in patients against each vaccine epitope and the irrelevant HBV control epitope. A positive peptide-induced CTL/T memory response to a given epitope met all of the following conditions: 1) was greater than 5 SFC above the irrelevant epitope response, 2) was greater than the mean SFC of the irrelevant epitope response, plus 2 SD, and 3) was two-fold greater than the SFC response in the pre-vaccination sample from the same patient, plus 2 SD. The inclusion of “plus two standard deviations” was used to accommodate the assay variability and served to increase the criteria stringency.

For KVFGSLAFV [HER2.369L2V9 A], the “Mean SFC” value (central memory T cells [1]; Week 9) was 120.8 SFC per 50,000 cells, the “Mean SFC” value (central memory T cells [1]; Week 18) was 315.7 SFC per 50,000 cells and the “net SFC of vaccine positive CTL responses” value (from here on “net SFC”) (central memory T cells [1]; colon patient 551, Week 9) was 134.7 SFC per 50,000 cells. The “net SFC” value (central memory T cells [1]; colon patient 551, Week 18) was 80.7 SFC per 50,000 cells, the “net SFC” value (central memory T cells [1]; colon patient 601, Week 9) was 112.7 SFC per 50,000 cells and the “net SFC” value (central memory T cells [1]; colon patient 601, Week 18) was 52.3 SFC per 50,000 cells. The “net SFC” value (central memory T cells [1]; colon patient 602, Week 9) was “—”, the “net SFC” value (central memory T cells [1]; colon patient 602, Week 18) was “—” and the “net SFC” value (central memory T cells [1]; colon patient 603, Week 9) was 30.0 SFC per 50,000 cells. For the same sequence, the “net SFC” value (central memory T cells [1]; colon patient 603, Week 18) was “—”, the “net SFC” value (central memory T cells [1]; colon patient 604, Week 9) was 88.3 SFC per 50,000 cells and the “net SFC” value (central memory T cells [1]; colon patient 604, Week 18) was 314.7 SFC per 50,000 cells. The “net SFC” value (central memory T cells [1]; colon patient 605, Week 9) was 32.7 SFC per 50,000 cells, the “net SFC” value (central memory T cells [1]; colon patient 605, Week 18) was 33.7 SFC per 50,000 cells and the “net SFC” value (central memory T cells [1]; colon patient 606, Week 9) was “—”. For the same sequence, the “net SFC” value (central memory T cells [1]; colon patient 606, Week 18) was 71.0 SFC per 50,000 cells, the “net SFC” value (central memory T cells [1]; colon patient 607, Week 9) was 389.3 SFC per 50,000 cells and the “net SFC” value (central memory T cells [1]; colon patient 607, Week 18) was 1642.7 SFC per 50,000 cells. The “net SFC” value (central memory T cells [1]; colon patient 608, Week 9) was “—”, the “net SFC” value (central memory T cells [1]; colon patient 608, Week 18) was “—” and the “net SFC” value (central memory T cells [1]; colon patient 609, Week 9) was 58.0 SFC per 50,000 cells. The “net SFC” value (central memory T cells [1]; colon patient 609, Week 18) was 14.7 SFC per 50,000 cells, the “Mean SFC” value (central memory T cells [2]; Week 9) was 84.3 SFC per 50,000 cells and the “No. Positive Responses” value (central memory T cells [2]; Week 9) was 1. For the same sequence, the “Mean SFC” value (central memory T cells [2]; Week 18) was 109.3 SFC per 50,000 cells, the “No. Positive Responses” value (central memory T cells [2]; Week 18) was 4 and the “net SFC” value (central memory T cells [2]; NSCLC patient 201, Week 9) was “—”. The “net SFC” value (central memory T cells [2]; NSCLC patient 201, Week 18) was “—”, the “net SFC” value (central memory T cells [2]; NSCLC patient 502, Week 9) was “—” and the “net SFC” value (central memory T cells [2]; NSCLC patient 502, Week 18) was “—”. The “net SFC” value (central memory T cells [2]; NSCLC patient 504, Week 9) was 84.3 SFC per 50,000 cells, the “net SFC” value (central memory T cells [2]; NSCLC patient 504, Week 18) was 284.0 SFC per 50,000 cells and the “net SFC” value (central memory T cells [2]; NSCLC patient 505, Week 9) was “—”. The “net SFC” value (central memory T cells [2]; NSCLC patient 505, Week 18) was 53.0 SFC per 50,000 cells, the “net SFC” value (central memory T cells [2]; NSCLC patient 532, Week 9) was “—” and the “net SFC” value (central memory T cells [2]; NSCLC patient 532, Week 18) was 78.3 SFC per 50,000 cells. The “net SFC” value (central memory T cells [2]; NSCLC patient 651, Week 9) was “—”, the “net SFC” value (central memory T cells [2]; NSCLC patient 651, Week 18) was 22.0 SFC per 50,000 cells and the “% of patients with positive CTL/central memory T cell response” value (central memory T cells [3]; phase 2, month 9) was 29%. For the same sequence, the “patients with positive CTL/central memory T cell response / patients tested” value (central memory T cells [3]; phase 2, month 9) was 2/7, the “% of patients with positive CTL/central memory T cell response” value (central memory T cells [3]; phase 2, month 12) was 50% and the “patients with positive CTL/central memory T cell response / patients tested” value (central memory T cells [3]; phase 2, month 12) was 2/4. The “% of patients with positive CTL/central memory T cell response” value (central memory T cells [3]; phase 2, week 9) was 42%, the “patients with positive CTL/central memory T cell response / patients tested” value (central memory T cells [3]; phase 2, week 9) was 14/33 and the “% of patients with positive CTL/central memory T cell response” value (central memory T cells [3]; phase 2, week 18) was 44%. For the same sequence, the “patients with positive CTL/central memory T cell response / patients tested” value (central memory T cells [3]; phase 2, week 18) was 14/32, the “% of patients with positive CTL/central memory T cell response” value (central memory T cells [3]; phase 2, week 30) was 57% and the “patients with positive CTL/central memory T cell response / patients tested” value (central memory T cells [3]; phase 2, week 30) was 13/23.
